Read-outs that look alike come from different tables or passages of the source.
What was measured:
RORγ = RORγ (Homo sapiens, UniProt P51449); assay: RORγ Gal4 Reporter Gene Assay; format: cell-based
How it was run: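 Cells at 5×10^5/well were transfected with RORγ fragments fused to the GAL4 DNA-binding domain (CMV promoter), a 5×GAL4-site firefly luciferase reporter and CMV-Renilla luciferase for normalization. About 4 h later serum-free MEM and compound were added (vehicle ≤0.1%). Cultures at 37 °C, 5% CO2; at least triplicates.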

[1] = biological target: RORγ ligand binding domain (LBD) (Homo sapiens (Human), UniProt P51449); assay: TR-FRET Activity Assay (ligand sensing assay, LANCE); details: for pIC50 (FRET): TR-FRET, interaction of RORγ-LBD with coactivator peptide
Sequence of RORγ ligand binding domain (LBD) (P51449 269-508): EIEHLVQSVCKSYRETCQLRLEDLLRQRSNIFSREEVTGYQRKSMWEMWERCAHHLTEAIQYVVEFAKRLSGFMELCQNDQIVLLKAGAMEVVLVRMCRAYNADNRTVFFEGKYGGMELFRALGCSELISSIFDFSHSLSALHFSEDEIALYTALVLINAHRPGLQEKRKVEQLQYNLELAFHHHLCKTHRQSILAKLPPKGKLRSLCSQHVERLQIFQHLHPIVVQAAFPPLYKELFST

[2] = firefly (FF) luciferase, 293T cells
[3] = renilla normalised (RENnorm) luciferase, 293T cells

Sequence of RORγ (P51449 whole entry, looked up, the tested form may be a part): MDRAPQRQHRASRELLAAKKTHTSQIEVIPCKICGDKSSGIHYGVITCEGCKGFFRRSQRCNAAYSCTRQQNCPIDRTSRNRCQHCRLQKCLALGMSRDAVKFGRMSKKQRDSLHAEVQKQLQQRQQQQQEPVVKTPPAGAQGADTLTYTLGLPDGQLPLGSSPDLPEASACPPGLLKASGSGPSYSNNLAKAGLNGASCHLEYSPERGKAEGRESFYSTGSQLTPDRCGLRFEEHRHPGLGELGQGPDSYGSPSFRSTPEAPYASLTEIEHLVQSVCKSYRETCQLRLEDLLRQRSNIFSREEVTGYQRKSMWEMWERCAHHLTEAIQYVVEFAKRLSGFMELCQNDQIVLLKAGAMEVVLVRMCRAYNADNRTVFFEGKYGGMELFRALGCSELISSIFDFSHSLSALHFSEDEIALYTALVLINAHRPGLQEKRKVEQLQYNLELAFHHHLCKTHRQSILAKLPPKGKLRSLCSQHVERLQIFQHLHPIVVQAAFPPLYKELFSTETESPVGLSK

Row | pIC50 (FF) (RORγ; [2]) | pIC50 (REN) (RORγ; [3]) | IC50 (RORγ; firefly (FF) luciferase, 293T cells, read-out: pIC50 (FF) (converted)) [nM] | IC50 (RORγ; renilla normalised (RENnorm) luciferase, 293T cells, read-out: pIC50 (REN) (converted)) [nM] | IC50 [1] [nM] | SMILES | pIC50 (FF) (RORγ) | pIC50 (REN) (RORγ) | pIC50 (FRET) [1]
1 | – | – | – | – | – | CC1(c2cc(Cl)cc(-c3sc(C(=O)N[C@H]4C[C@H](C(=O)O)C4)nc3CC3CCCCC3)c2)CC1 [9/9] | 5.4/6.9/7.0 | 5.4/6.9/7.0 | 5.4/6.9/7.0
2 | – | – | – | – | – | CC(C)(O)c1cc(-c2sc(C(=O)N[C@H]3C[C@@H](C(=O)O)C3)nc2CC2CCCCC2)cc(C2(C)CC2)c1 [9/10] | 6.3/7.2/7.2 | 6.3/7.2/7.2 | 6.3/7.2/7.2
3 | – | – | – | – | – | CC(C)(C)NS(=O)(=O)c1ccc(-c2sc(C(=O)N[C@H]3C[C@H](C(=O)O)C3)nc2CC2CCCCC2)c2c1CCC2 [9/11] | 6.6/8.5/8.5 | 6.6/8.5/8.5 | 6.6/8.5/8.5
4 | – | – | – | – | – | CC1(c2cc(C(=O)NC3(C#N)CC3)cc(-c3sc(C(=O)NC4CCS(=O)(=O)CC4)nc3CC3CCCCC3)c2)CC1 [10/2] | 6.6/7.3/7.4 | 6.6/7.3/7.4 | 6.6/7.3/7.4
5 | – | – | – | – | – | CC(C)(C)NS(=O)(=O)c1ccc(-c2sc(S(N)(=O)=O)nc2CC2CCCCC2)cc1C(F)(F)F [13/2] | 6.5/6.7/6.8 | 6.5/6.7/6.8 | 6.5/6.7/6.8
6 | – | – | – | – | – | CC(C)(C)NS(=O)(=O)c1ccc(-c2sc(S(N)(=O)=O)nc2CC2CCCCC2)c2ccccc12 [13/3] | 6.6/7.5/7.7 | 6.6/7.5/7.7 | 6.6/7.5/7.7
7 | – | – | – | – | – | COCC(C)(C)NS(=O)(=O)c1ccc(-c2sc(C(=O)N3CC4(CCS(=O)(=O)CC4)C3)nc2CC2CCCCC2)c2ccccc12 [14/2] | 6.5/7.4/7.4 | 6.5/7.4/7.4 | 6.5/7.4/7.4
8 | – | – | – | – | – | O=C(c1nc(CC2CCCCC2)c(-c2ccc(S(=O)(=O)NC3CS(=O)(=O)C3)c3ccccc23)s1)N1CC2(CCS(=O)(=O)CC2)C1 [14/3] | 6.6/6.4/6.4 | 6.6/6.4/6.4 | 6.6/6.4/6.4
9 | – | – | – | – | – | O=C(c1nc(CC2CCCCC2)c(-c2ccc(S(=O)(=O)N3CCOCC3)c3ccccc23)s1)N1CC2(CCS(=O)(=O)CC2)C1 [14/4] | 6.2/6.4/6.3 | 6.2/6.4/6.3 | 6.2/6.4/6.3
10 | – | – | – | – | – | CNS(=O)(=O)c1ccc(-c2sc(C(=O)N3CC4(CCS(=O)(=O)CC4)C3)nc2CC2CCCCC2)c2ccccc12 [14/5] | 6.3/6.6/6.6 | 6.3/6.6/6.6 | 6.3/6.6/6.6
11 | – | – | – | – | – | CC(C)(C)NS(=O)(=O)c1ccc(-c2sc(C(=O)NC3C[S+]([O-])C3)nc2CC2CCCCC2)cc1C(C)(C)O (stereo not drawn) [15/2] | 6.6/7.3/7.3 | 6.6/7.3/7.3 | 6.6/7.3/7.3
12 | – | – | – | – | – | CC(C)(C)NS(=O)(=O)c1ccc(-c2sc(C(=O)NC3CS(=O)(=O)C3)nc2CC2CCCCC2)cc1C(C)(C)O [15/3] | 6.9/7.9/7.9 | 6.9/7.9/7.9 | 6.9/7.9/7.9
13 | – | – | – | – | – | CC(C)(C)NS(=O)(=O)c1ccc(-c2sc(C(=O)NC3CS(=O)(=O)C3)nc2CC2CCCCC2)c(Cl)c1Cl [15/4] | 7.3/8.7/9.0 | 7.3/8.7/9.0 | 7.3/8.7/9.0
14 | – | – | – | – | – | CC(C)(C)NS(=O)(=O)c1ccc(-c2sc(C(=O)NC3C[S+]([O-])C3)nc2CC2CCCCC2)c(Cl)c1Cl (stereo not drawn) [15/5] | 6.9/8.5/8.4 | 6.9/8.5/8.4 | 6.9/8.5/8.4
15 | – | – | – | – | – | CC(C)(C)NS(=O)(=O)c1ccc(-c2sc(C(=O)NCc3ncc(S(C)(=O)=O)s3)nc2CC2CCCCC2)c(Cl)c1Cl [15/7] | 7.2/8.3/8.4 | 7.2/8.3/8.4 | 7.2/8.3/8.4
16 | – | – | – | – | – | CC(C)(C)NS(=O)(=O)c1ccc(-c2sc(C(=O)N3CC4(CC[S+]([O-])CC4)C3)nc2CC2CCCCC2)c2ccccc12 [15/9] | 6.4/7.8/7.9 | 6.4/7.8/7.9 | 6.4/7.8/7.9
17 | – | – | – | – | – | COC(c1nc(C(=O)N[C@H]2C[C@H](C(=O)O)C2)sc1-c1cc(C(C)(C)C)cc(C2(C)CC2)c1)C1CCCCC1 (stereo partly drawn) [19/2] | 6.1/7.0/7.0 | 6.1/7.0/7.0 | 6.1/7.0/7.0
18 | – | – | – | – | – | COC(c1nc(C(=O)NC2CCOCC2)sc1-c1cc(C(C)(C)C)cc(C2(C)CC2)c1)C1CCCCC1 (stereo not drawn) [19/3] | 6.8/7.1/7.1 | 6.8/7.1/7.1 | 6.8/7.1/7.1
19 | – | – | – | – | – | COC(c1nc(C(=O)N[C@H]2C[C@H](C(=O)O)C2)sc1-c1ccc(S(=O)(=O)NC(C)(C)C)c(Cl)c1Cl)C1CCCCC1 (stereo partly drawn) [19/4] | 6.0/7.3/7.2 | 6.0/7.3/7.2 | 6.0/7.3/7.2
20 | – | – | – | – | – | CC(C)(O)CNC(=O)c1nc(CC2CCCCC2)c(-c2ncc(S(=O)(=O)NC(C)(C)C)c3ccccc23)s1 [19/6] | 6.4/7.7/7.7 | 6.4/7.7/7.7 | 6.4/7.7/7.7
21 | – | – | – | – | – | Cc1c(C(=O)NC(C)(C)C)cc(-c2sc(C(=O)N[C@H]3C[C@H](C(=O)O)C3)nc2CC2CCCCC2)cc1C1(C)CC1 [19/7] | 5.8/6.8/6.8 | 5.8/6.8/6.8 | 5.8/6.8/6.8

Row | pIC50 (FF) (RORγ; [2]) | pIC50 (REN) (RORγ; [3]) | IC50 (RORγ; firefly (FF) luciferase, 293T cells, read-out: pIC50 (FF) (converted)) [nM] | IC50 (RORγ; renilla normalised (RENnorm) luciferase, 293T cells, read-out: pIC50 (REN) (converted)) [nM] | IC50 [1] [nM] | SMILES | pIC50 (FF) (RORγ) | pIC50 (REN) (RORγ) | pIC50 (FRET) [1]
22 | – | – | – | – | – | CC(C)(O)CNC(=O)c1nc(CC2CCCCC2)c(-c2ccc(S(=O)(=O)NC(C)(C)C)c3c(F)cccc23)s1 [19/8] | 7.0/7.7/7.8 | 7.0/7.7/7.8 | 7.0/7.7/7.8
23 | – | – | – | – | – | CC(C)(C)NS(=O)(=O)c1ccc(-c2sc(C(=O)N[C@H]3C[C@H](C(=O)O)C3)nc2CC2CCCCC2)c2c(F)cccc12 [19/9] | 6.3/7.0/7.1 | 6.3/7.0/7.1 | 6.3/7.0/7.1
24 | – | – | – | – | – | CC(C)(C)NS(=O)(=O)c1ccc(-c2sc(C(=O)N[C@H]3C[C@H](C(=O)O)C3)nc2CC2CCCCC2)c(F)c1OC(F)(F)F [19/10] | 6.7/8.4/8.5 | 6.7/8.4/8.5 | 6.7/8.4/8.5
25 | 6.8 | 6.7 | – | – | – | CC(C)(C)c1cc(-c2sc(C(=O)NC3CC(C(=O)O)C3)nc2CC2CCCCC2)nc(C2(C)CC2)n1 (stereo not drawn) [19/12] | – | – | 6.1
26 | 6.9 | 6.9 | – | – | – | CC(C)(C)c1cc(-c2sc(C(=O)NC3CC(C(=O)O)C3)nc2CC2CCCCC2)nc(C(C)(C)C)n1 (stereo not drawn) [19/13] | – | – | 6.5
27 | – | – | – | – | – | CC(C)(O)CNC(=O)c1nc(CC2CCCCC2)c(-c2ccc(S(=O)(=O)NC(C)(C)C)c3cccc(F)c23)s1 [19/14] | 6.4/6.8/6.9 | 6.4/6.8/6.9 | 6.4/6.8/6.9
28 | – | – | – | – | – | CC(C)(O)CNC(=O)c1nc(CC2CCC2)c(-c2ccc(S(=O)(=O)NC(C)(C)C)c3ccccc23)s1 [21/2] | 6.8/8.4/8.5 | 6.8/8.4/8.5 | 6.8/8.4/8.5
29 | – | – | 10 | 5.01 | 398 | CC(C)(C)NS(=O)(=O)c1ccc(-c2sc(C(=O)N[C@H]3C[C@H](C(=O)O)C3)nc2CC2CCCCC2)c(OC(F)F)c1Cl [21/3] | – | – | –
30 | – | – | – | – | – | CC(C)(O)CNC(=O)c1nc(CC2CCCCC2)c(-c2ccc(S(=O)(=O)NC(C)(C)C)c(Cl)c2OC(F)F)s1 [21/4] | 6.9/8.2/8.4 | 6.9/8.2/8.4 | 6.9/8.2/8.4
31 | – | – | – | – | – | O=C(c1nc(CC2CCCCC2)c(-c2ccc(S(=O)(=O)NC3CCOCC3)c3ccccc23)s1)N1CC2(CCS(=O)(=O)CC2)C1 [21/9] | 6.2/7.3/7.4 | 6.2/7.3/7.4 | 6.2/7.3/7.4
32 | – | – | – | – | – | CC(O)c1c(S(=O)(=O)NC(C)(C)C)ccc(-c2sc(C(=O)N3CC4(CCS(=O)(=O)CC4)C3)nc2CC2CCCCC2)c1Cl (stereo not drawn) [21/10] | 5.9/6.7/6.7 | 5.9/6.7/6.7 | 5.9/6.7/6.7
33 | – | – | – | – | – | CC(C)(C)NS(=O)(=O)c1ccc(-c2sc(C(=O)NC3CCS(=O)(=O)CC3)nc2CC2CCCCC2)c2ccncc12 [21/13] | 6.3/7.9/7.9 | 6.3/7.9/7.9 | 6.3/7.9/7.9
34 | – | – | – | – | – | CC(C)(C)NS(=O)(=O)c1ccc(-c2oc(C(=O)N[C@H]3C[C@H](C(=O)O)C3)nc2CC2CCCCC2)cc1C(C)(C)C [100/2] | 5.5/6.4/6.3 | 5.5/6.4/6.3 | 5.5/6.4/6.3
35 | – | – | – | – | – | CN(C(=O)c1nc(CC2CCCCC2)c(-c2ccc(S(=O)(=O)NC(C)(C)C)c3ccccc23)o1)C1CCOCC1 [100/4] | 6.6/7.1/7.3 | 6.6/7.1/7.3 | 6.6/7.1/7.3
36 | – | – | – | – | – | CC(C)(C)NS(=O)(=O)c1ccc(-c2oc(C(=O)NCC3(O)CCOCC3)nc2CC2CCCCC2)c2ccccc12 [100/5] | 6.3/8.1/8.2 | 6.3/8.1/8.2 | 6.3/8.1/8.2
37 | – | – | – | – | – | CC(C)(C)NS(=O)(=O)c1ccc(-c2oc(C(=O)NC3CCS(=O)(=O)CC3)nc2CC2CCCCC2)c2ccccc12 [100/6] | 6.4/8.5/8.4 | 6.4/8.5/8.4 | 6.4/8.5/8.4
38 | – | – | – | – | – | CC(C)(O)CNC(=O)c1nc(CC2CCCCC2)c(-c2ccc(S(=O)(=O)NC(C)(C)C)c3ccccc23)o1 [100/7] | 6.6/7.7/7.9 | 6.6/7.7/7.9 | 6.6/7.7/7.9
39 | – | – | – | – | – | CC(C)(C)NS(=O)(=O)c1ccc(-c2oc(C(=O)NCC3(O)CCS(=O)(=O)CC3)nc2CC2CCCCC2)c2ccccc12 [100/8] | 6.5/8.0/8.2 | 6.5/8.0/8.2 | 6.5/8.0/8.2
40 | – | – | – | – | – | CC(C)(C)NS(=O)(=O)c1ccc(-c2oc(C(=O)N3CC4(CCS(=O)(=O)CC4)C3)nc2CC2CCCCC2)c2ccccc12 [100/9] | 6.3/8.5/8.5 | 6.3/8.5/8.5 | 6.3/8.5/8.5
41 | – | – | – | – | – | CC(C)(C)NS(=O)(=O)c1ccc(-c2oc(C(=O)N3CC4(CCOCC4)C3)nc2CC2CCCCC2)c2ccccc12 [100/10] | 6.4/7.2/7.4 | 6.4/7.2/7.4 | 6.4/7.2/7.4
